Reference: US10793564B2, “Amino acid compounds and methods of use” (Pliant Therapeutics, Inc., priority 2018, dated 2020)

Target: recombinant human integrin αVβ6 (Homo sapiens (Human), UniProt P06756+P18564)
Assay: Solid phase integrin αVβ6 binding assay
Details: inhibition of recombinant TGFβ1 LAP binding to coated integrin, IC50 presented in four ranges, read-out: αvβ6 Inhibition IC50 (nM) - range
Method in brief: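 Plates coated with recombinant human αVβ6 (2 μg/mL) and blocked; compounds competed with TGFβ1 LAP (0.67 μg/mL) in Mn2+ (0.5 mM)/BSA/sucrose TBS for 2 h at 25° C. Bound LAP detected by biotin anti-LAP and peroxidase-streptavidin; IC50 by four-parameter logistic fit.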

Sequence of recombinant human integrin αVβ6 (P06756 31-992): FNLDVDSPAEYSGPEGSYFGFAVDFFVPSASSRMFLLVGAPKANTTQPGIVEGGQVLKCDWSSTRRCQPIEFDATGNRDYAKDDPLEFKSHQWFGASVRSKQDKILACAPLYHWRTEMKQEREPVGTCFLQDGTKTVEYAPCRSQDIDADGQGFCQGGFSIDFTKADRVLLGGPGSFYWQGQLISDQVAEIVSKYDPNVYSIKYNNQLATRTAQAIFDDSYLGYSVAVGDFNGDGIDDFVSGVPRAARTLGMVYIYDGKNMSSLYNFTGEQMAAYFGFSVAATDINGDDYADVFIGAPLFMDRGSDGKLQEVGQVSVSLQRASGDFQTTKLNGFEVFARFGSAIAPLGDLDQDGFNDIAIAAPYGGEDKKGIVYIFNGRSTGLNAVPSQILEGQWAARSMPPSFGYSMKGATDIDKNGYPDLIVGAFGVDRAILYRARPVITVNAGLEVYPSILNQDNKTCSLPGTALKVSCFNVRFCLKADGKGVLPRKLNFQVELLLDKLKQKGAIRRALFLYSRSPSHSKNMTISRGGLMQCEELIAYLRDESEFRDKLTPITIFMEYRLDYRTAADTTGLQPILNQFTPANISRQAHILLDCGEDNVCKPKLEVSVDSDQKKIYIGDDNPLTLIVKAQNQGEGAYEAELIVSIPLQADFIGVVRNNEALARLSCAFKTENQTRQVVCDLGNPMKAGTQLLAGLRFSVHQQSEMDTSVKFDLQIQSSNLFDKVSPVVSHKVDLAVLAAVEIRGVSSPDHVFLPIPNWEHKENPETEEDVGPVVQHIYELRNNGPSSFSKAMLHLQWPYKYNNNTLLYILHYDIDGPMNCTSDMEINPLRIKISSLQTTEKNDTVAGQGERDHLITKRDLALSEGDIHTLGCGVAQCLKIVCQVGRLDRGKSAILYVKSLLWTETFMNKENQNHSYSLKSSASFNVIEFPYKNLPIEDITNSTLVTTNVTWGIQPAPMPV
Sequence of recombinant human integrin αVβ6 (P18564 22-707): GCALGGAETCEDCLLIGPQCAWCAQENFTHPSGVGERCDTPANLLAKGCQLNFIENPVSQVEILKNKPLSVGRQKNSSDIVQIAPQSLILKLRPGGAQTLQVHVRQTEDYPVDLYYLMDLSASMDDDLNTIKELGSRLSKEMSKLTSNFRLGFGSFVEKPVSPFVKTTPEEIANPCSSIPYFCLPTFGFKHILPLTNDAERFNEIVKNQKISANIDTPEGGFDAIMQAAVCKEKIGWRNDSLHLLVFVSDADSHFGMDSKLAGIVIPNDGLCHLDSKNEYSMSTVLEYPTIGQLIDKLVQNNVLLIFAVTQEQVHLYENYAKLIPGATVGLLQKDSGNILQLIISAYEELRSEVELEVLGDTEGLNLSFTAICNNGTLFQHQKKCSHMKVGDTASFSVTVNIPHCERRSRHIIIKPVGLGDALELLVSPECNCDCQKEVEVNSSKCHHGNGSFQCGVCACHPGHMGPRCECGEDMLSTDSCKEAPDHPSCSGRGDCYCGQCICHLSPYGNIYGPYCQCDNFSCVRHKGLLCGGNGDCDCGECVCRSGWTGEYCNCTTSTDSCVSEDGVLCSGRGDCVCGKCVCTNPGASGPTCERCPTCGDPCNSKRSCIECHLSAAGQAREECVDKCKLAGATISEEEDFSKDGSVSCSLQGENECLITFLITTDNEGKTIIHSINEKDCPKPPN

Row | IC50 [nM] | Structure (SMILES)
1 | < 50 | CO[C@H](C)CN(CCCCc1ccc2c(n1)NCCC2)CC[C@H](Nc1nc(C)nc2ccccc12)C(=O)O [Compound 66, (S)-4-(((R)-2-methoxypropyl) (4-(5,6,7,8-tetrahydro-1,8-naphthyridin-2-yl)butyl)amino)-2-((2-methylquinazolin-4-yl)amino) butanoic Acid]
2 | < 50 | N#Cc1cnc(N[C@@H](CCN(CCCCc2ccc3c(n2)NCCC3)CCOc2ccc(F)cc2)C(=O)O)nc1 [Compound 138, (S)-2-((5-cyanopyrimidin-2-yl)amino)-4-((2-(4-fluorophenoxy)ethyl) (4-(5,6,7,8-tetrahydro-1,8-naphthyridin-2-yl)butyl)amino) butanoic Acid]
3 | < 50 | O=C(O)[C@H](CCN(CCCCc1ccc2c(n1)NCCC2)CCOc1ccccc1)Nc1ncnc2[nH]ncc12 [Compound 90, (S)-2-((1H-pyrazolo[3,4-d]pyrimidin-4-yl)amino)-4-((2-phenoxyethyl) (4-(5,6,7,8-tetrahydro-1,8-naphthyridin-2-yl)butyl)amino) butanoic Acid]
4 | < 50 | COC[C@@H](F)CN(CCCCc1ccc2c(n1)NCCC2)CC[C@H](Nc1ncncc1-c1ccccc1)C(=O)O [Compound 110, (S)-4-(((S)-2-fluoro-3-methoxypropyl) (4-(5,6,7,8-tetrahydro-1,8-naphthyridin-2-yl)butyl)amino)-2-((5-phenylpyrimidin-4-yl)amino) butanoic Acid]
5 | > 1000 | O=C(O)[C@H](CCN(CCCCc1ccc2c(n1)NCCC2)CC(F)F)Nc1ncc(F)cn1 [Compound 121, (S)-4-((2,2-difluoroethyl) (4-(5,6,7,8-tetrahydro-1,8-naphthyridin-2-yl)butyl)amino)-2-((5-fluoropyrimidin-2-yl)amino) butanoic Acid]
6 | 50 to 250 | Cn1ncc2c(N[C@@H](CCN(CCCCc3ccc4c(n3)NCCC4)CCC(F)F)C(=O)O)ncnc21 [Compound 133, (S)-4-((3,3-difluoropropyl) (4-(5,6,7,8-tetrahydro-1,8-naphthyridin-2-yl)butyl)amino)-2-((1-methyl-1H-pyrazolo[3,4-d]pyrimidin-4-yl)amino) butanoic Acid]
7 | < 50 | COCCN(CCCCc1ccc2c(n1)NCCC2)CC[C@H](Nc1ncnc2ccccc12)C(=O)O [Compound 5, (S)-4-((2-methoxyethyl) (4-(5,6,7,8-tetrahydro-1,8-naphthyridin-2-yl)butyl)amino)-2-(quinazolin-4-ylamino) butanoic Acid]
8 | > 1000 | CS(=O)(=O)CCN(CCCCc1ccc2c(n1)NCCC2)CC[C@H](Nc1ccnc(C(F)(F)F)n1)C(=O)O [Compound 104, (S)-4-((2-(methylsulfonyl)ethyl) (4-(5,6,7,8-tetrahydro-1,8-naphthyridin-2-yl)butyl)amino)-2-((2-(trifluoromethyl)pyrimidin-4-yl)amino) butanoic Acid]
9 | < 50 | COCCN(CCCCc1ccc2c(n1)NCCC2)CC[C@H](Nc1ncnc2cccc(F)c12)C(=O)O [Compound 18, (S)-2-((5-fluoroquinazolin-4-yl)amino)-4-((2-methoxyethyl) (4-(5,6,7,8-tetrahydro-1,8-naphthyridin-2-yl)butyl)amino) butanoic Acid]
10 | < 50 | CS(=O)(=O)CCN(CCCCc1ccc2c(n1)NCCC2)CC[C@H](Nc1ncnc2ccccc12)C(=O)O [Compound 27, (S)-4-((2-(methylsulfonyl)ethyl) (4-(5,6,7,8-tetrahydro-1,8-naphthyridin-2-yl)butyl)amino)-2-(quinazolin-4-ylamino) butanoic Acid]

More lines, now with the values behind:

Row | Structure (SMILES) | IC50 [nM]
11 | N#Cc1cnc(N[C@@H](CCN(CCCCc2ccc3c(n2)NCCC3)CC(F)F)C(=O)O)nc1 [Compound 118, (S)-2-((5-cyanopyrimidin-2-yl)amino)-4-((2,2-difluoroethyl) (4-(5,6,7,8-tetrahydro-1,8-naphthyridin-2-yl)butyl)amino) butanoic Acid] | > 1000
12 | COc1cccc2c(N[C@@H](CCN(CCCF)CCCCc3ccc4c(n3)NCCC4)C(=O)O)ncnc12 [Compound 43, (S)-4-((3-fluoropropyl) (4-(5,6,7,8-tetrahydro-1,8-naphthyridin-2-yl)butyl)amino)-2-((8-methoxyquinazolin-4-yl)amino) butanoic Acid] | < 50
13 | O=C(O)[C@H](CCN(CCCCc1ccc2c(n1)NCCC2)CCOc1ccccc1)Nc1ncc(C(F)(F)F)cn1 [Compound 89, (S)-4-((2-phenoxyethyl) (4-(5,6,7,8-tetrahydro-1,8-naphthyridin-2-yl)butyl)amino)-2-((5-(trifluoromethyl)pyrimidin-2-yl)amino) butanoic Acid] | < 50
14 | O=C(O)[C@H](CCN(CCCCc1ccc2c(n1)NCCC2)CC(F)F)Nc1ccncn1 [Compound 120, (S)-4-((2,2-difluoroethyl) (4-(5,6,7,8-tetrahydro-1,8-naphthyridin-2-yl)butyl)amino)-2-(pyrimidin-4-ylamino) butanoic Acid] | > 1000
15 | O=C(O)[C@H](CCN(CCCCc1ccc2c(n1)NCCC2)CCOc1ccccc1)Nc1ncc(Br)cn1 [Compound 83, (S)-2-((5-bromopyrimidin-2-yl)amino)-4-((2-phenoxyethyl) (4-(5,6,7,8-tetrahydro-1,8-naphthyridin-2-yl)butyl)amino) butanoic Acid] | < 50
16 | COCCN(CCCCc1ccc2c(n1)NCCC2)CC[C@H](Nc1cc(C(F)(F)F)nc(C)n1)C(=O)O [Compound 22, (S)-4-((2-methoxyethyl) (4-(5,6,7,8-tetrahydro-1,8-naphthyridin-2-yl)butyl)amino)-2-((2-methyl-6-(trifluoromethyl)pyrimidin-4-yl)amino) butanoic Acid] | < 50
17 | COC[C@@H](F)CN(CCCCc1ccc2c(n1)NCCC2)CC[C@H](Nc1nc(C)nc2cc(F)ccc12)C(=O)O [Compound 32, (S)-2-((7-fluoro-2-methylquinazolin-4-yl)amino)-4-(((S)-2-fluoro-3-methoxypropyl) (4-(5,6,7,8-tetrahydro-1,8-naphthyridin-2-yl)butyl)amino) butanoic Acid] | < 50
18 | O=C(O)[C@H](CCN(CCCCc1ccc2c(n1)NCCC2)CC(F)F)Nc1ncc(Br)cn1 [Compound 96, (S)-2-((5-bromopyrimidin-2-yl)amino)-4-((2,2-difluoroethyl) (4-(5,6,7,8-tetrahydro-1,8-naphthyridin-2-yl)butyl)amino) butanoic Acid] | > 1000
19 | COC[C@@H](F)CN(CCCCc1ccc2c(n1)NCCC2)CC[C@H](Nc1ccnc(C(F)(F)F)n1)C(=O)O [Compound 87, (S)-4-(((S)-2-fluoro-3-methoxypropyl) (4-(5,6,7,8-tetrahydro-1,8-naphthyridin-2-yl)butyl)amino)-2-((2-(trifluoromethyl)pyrimidin-4-yl)amino) butanoic Acid] | 250 to 1000
20 | O=C(O)[C@H](CCN(CCCCc1ccc2c(n1)NCCC2)CC(F)F)Nc1nc(-c2cccnc2)nc2ccccc12 [Compound 99, (S)-4-((2,2-difluoroethyl) (4-(5,6,7,8-tetrahydro-1,8-naphthyridin-2-yl)butyl)amino)-2-((2-(pyridin-3-yl)quinazolin-4-yl)amino) butanoic Acid] | 250 to 1000
21 | CS(=O)(=O)CCN(CCCCc1ccc2c(n1)NCCC2)CC[C@H](Nc1nc(-c2cccnc2)nc2ccccc12)C(=O)O [Compound 107, (S)-4-((2-(methylsulfonyl)ethyl) (4-(5,6,7,8-tetrahydro-1,8-naphthyridin-2-yl)butyl)amino)-2-((2-(pyridin-3-yl)quinazolin-4-yl)amino) butanoic Acid] | 250 to 1000
